Data as given in patent publication US12110305B2, “Prodrugs of phosphonamide nucleotide analogues and their pharmaceutical use” (priority 2020, dated 2024).

The molecules below were run on HIV-1 (IIIB) (assay: Antiviral (HIV) assay in MT-4 cells). Details: HIV-1 IIIB in MT-4 cells, 5 days incubation, Cell Titer Glo; average of at least two independent experiments; read-out: MT4 HIV EC50.
Format: cell-based
Experimental: Example 104: Antiviral (HIV) Assay in MT-4 Cells
Compounds were tested in a high-throughput 384-well assay format for their ability to inhibit the replication of HIV-1 (IIIB) in MT-4 cells. Compounds were serially diluted (1:3) in DMSO on 384-well polypropylene plates and further diluted 200-fold into complete RPMI media (10% FBS, 1% P/S) using the Biotek Micro Flow and Labcyte ECHO acoustic dispenser. Each plate contained up to 8 test compounds, with negative (no drug) and positive (5 μM AZT) controls. MT-4 cells were pre-treated with 10 μL of either RPMI (mock-infected) or a fresh 1:250 dilution of HIV-1 IIIB concentrated virus stock. Infected and uninfected MT-4 cells were further diluted in complete RPMI media and added to each plate using a Micro Flow dispenser. After 5 days incubation in a humidified and temperature-controlled incubator (37° C.), Cell Titer Glo (Promega) was added to the assay plates and chemiluminescence read using an Envision plate-reader. EC50 values were defined as the compound concentration that causes a 50% decrease in luminescence signal and were calculated using a sigmoidal dose-response model to generate curve fits and are shown in Table 1.

Row | Compound | EC50
1 | CCC(CC)COC(=O)C(C)(C)N[P@](=O)(CO[C@H](C)Cn1cnc2c(N)ncnc21)NC1(C(=O)OCC(CC)CC)CC1 [Example 71, 2-Ethylbutyl 1-(((R)-((((R)-1-(6-amino-9H-purin-9-yl)propan-2-yl)oxy)methyl)((1-(2-ethylbutoxy)-2-methyl-1-oxopropan-2-l)amino)phosphoryl)amino)cyclopropane-1-carboxylate] | 233 nM

Same assay, conditions: Human immunodeficiency virus 1, MT4, 120 h; HIV-1 IIIB in MT-4 cells, 5 days incubation, Cell Titer Glo; average of at least two independent experiments

Row | Compound | EC50
2 | C[C@H](Cn1cnc2c(N)ncnc21)OCP(=O)(NC(C)(C)C(=O)O[C@H](C)C1CCCCC1)NC(C)(C)C(=O)O[C@H](C)C1CCCCC1 [Example 55, Bis((R)-1-cyclohexylethyl) 2,2′-((((((R)-1-(6-amino-9H-purin-9-yl)propan-2-yl)oxy)methyl)phosphoryl)bis(azanediyl))bis(2-methylpropanoate)] | 101 nM
3 | C[C@H](Cn1cnc2c(N)ncnc21)OCP(=O)(NC(C)(C)C(=O)O[C@@H](C)C1CCCCC1)NC(C)(C)C(=O)O[C@@H](C)C1CCCCC1 [Example 56, Bis((S)-1-cyclohexylethyl) 2,2′-((((((R)-1-(6-amino-9H-purin-9-yl)propan-2-yl)oxy)methyl)phosphoryl)bis(azanediyl))bis(2-methylpropanoate)] | 177 nM
4 | C[C@H](Cn1cnc2c(N)ncnc21)OCP(=O)(NC(C)(C)C(=O)OCC1CC2(C1)CC1(CCC1)C2)NC(C)(C)C(=O)OCC1CC2(C1)CC1(CCC1)C2 [Example 57, Bis(dispiro[3.1.3^6.1^4]decan-2-ylmethyl) 2,2′-(((((1-(6-amino-9H-purin-9-yl)propan-2-yl)oxy)methyl)phosphoryl)bis(azanediyl))(R)-bis(2-methylpropanoate)] | 23 nM
5 | C[C@H](Cn1cnc2c(N)ncnc21)OCP(=O)(NC(C)(C)C(=O)OCC1CC2(C1)CC(F)(F)C2)NC(C)(C)C(=O)OCC1CC2(C1)CC(F)(F)C2 [Example 58, Bis((6,6-difluorospiro[3.3]heptan-2-yl)methyl) 2,2′-(((((1-(6-amino-9H-purin-9-yl)propan-2-yl)oxy)methyl)phosphoryl)bis(azanediyl))(R)-bis(2-methylpropanoate)] | 5 nM
6 | C[C@H](Cn1cnc2c(N)ncnc21)OCP(=O)(NC(C)(C)C(=O)OCC12CC3CC(CC(C3)C1)C2)NC(C)(C)C(=O)OCC12CC3CC(CC(C3)C1)C2 [Example 59, Bis(((1S,3S)-adamantan-1-yl)methyl) 2,2′-((((((R)-1-(6-amino-9H-purin-9-yl)propan-2-yl)oxy)methyl)phosphoryl)bis(azanediyl))bis(2-methylpropanoate)] | 47 nM
7 | C[C@H](Cn1cnc2c(N)ncnc21)OCP(=O)(NC(C)(C)C(=O)O[C@@H]1C[C@@H]2C[C@@H]2C1)NC(C)(C)C(=O)O[C@@H]1C[C@@H]2C[C@@H]2C1 [Example 60, Di((1R,3R,5S)-bicyclo[3.1.0]hexan-3-yl) 2,2′-((((((R)-1-(6-amino-9H-purin-9-yl)propan-2-yl)oxy)methyl)phosphoryl)bis(azanediyl))bis(2-methylpropanoate)] | 3 nM
8 | C[C@H](Cn1cnc2c(N)ncnc21)OCP(=O)(NC(C)(C)C(=O)OC1CCC2(CCCC2)CC1)NC(C)(C)C(=O)OC1CCC2(CCCC2)CC1 (stereo partly drawn) [Example 61, Di(spiro[4.5]decan-8-yl) 2,2′-(((((1-(6-amino-9H-purin-9-yl)propan-2-yl)oxy)methyl)phosphoryl)bis(azanediyl))(R)-bis(2-methylpropanoate)] | 28 nM
9 | C[C@H](Cn1cnc2c(N)ncnc21)OCP(=O)(NC(C)(C)C(=O)OCCC12CC(C1)C2)NC(C)(C)C(=O)OCCC12CC(C1)C2 [Example 62, Bis(2-(bicyclo[1.1.1]pentan-1-yl)ethyl) 2,2′-(((((1-(6-amino-9H-purin-9-yl)propan-2-yl)oxy)methyl)phosphoryl)bis(azanediyl))(R)-bis(2-methylpropanoate)] | 7 nM
10 | C[C@H](Cn1cnc2c(N)ncnc21)OCP(=O)(NC(C)(C)C(=O)OC1CCC2(CCC2)CC1)NC(C)(C)C(=O)OC1CCC2(CCC2)CC1 (stereo partly drawn) [Example 63, Di(spiro[3.5]nonan-7-yl) 2,2′-(((((1-(6-amino-9H-purin-9-yl)propan-2-yl)oxy)methyl)phosphoryl)bis(azanediyl))(R)-bis(2-methylpropanoate)] | 7 nM
11 | CCCCCCOC(=O)C(NP(=O)(CO[C@H](C)Cn1cnc2c(N)ncnc21)NC(C(=O)OCCCCCC)(C1CC1)C1CC1)(C1CC1)C1CC1 [Example 64, Dihexyl 2,2′-(((((1-(6-amino-9H-purin-9-yl)propan-2-yl)oxy)methyl)phosphoryl)bis(azanediyl))(R)-bis(2,2-dicyclopropylacetate)] | > 500 nM
12 | CCCCCCOC(=O)C(CC)(CC)NP(=O)(CO[C@H](C)Cn1cnc2c(N)ncnc21)NC(CC)(CC)C(=O)OCCCCCC [Example 65, Dihexyl 2,2′-(((((1-(6-amino-9H-purin-9-yl)propan-2-yl)oxy)methyl)phosphoryl)bis(azanediyl))(R)-bis(2-ethylbutanoate)] | > 500 nM
13 | CCCCCCCOC(=O)C(C)(C)NP(=O)(CO[C@H](C)Cn1cnc2c(N)ncnc21)NC(C)(C)C(=O)OCCCCCCC [Example 66, Diheptyl 2,2′-(((((1-(6-amino-9H-purin-9-yl)propan-2-yl)oxy)methyl)phosphoryl)bis(azanediyl))(R)-bis(2-methylpropanoate)] | 9 nM
14 | CC(C)CCCCOC(=O)C(C)(C)NP(=O)(CO[C@H](C)Cn1cnc2c(N)ncnc21)NC(C)(C)C(=O)OCCCCC(C)C [Example 68, Bis(5-methylhexyl) 2,2′-(((((1-(6-amino-9H-purin-9-yl)propan-2-yl)oxy)methyl)phosphoryl)bis(azanediyl))(R)-bis(2-methylpropanoate)] | 9 nM
15 | CCCC(CCC)COC(=O)C(C)(C)NP(=O)(CO[C@H](C)Cn1cnc2c(N)ncnc21)NC(C)(C)C(=O)OCC(CCC)CCC [Example 69, Bis(2-propylpentyl) 2,2′-(((((1-(6-amino-9H-purin-9-yl)propan-2-yl)oxy)methyl)phosphoryl)bis(azanediyl))(R)-bis(2-methylpropanoate)] | 24 nM
16 | CCC(CC)COC(=O)C1(NP(=O)(CO[C@H](C)Cn2cnc3c(N)ncnc32)NC2(C(=O)OCC(CC)CC)CC2)CC1 [Example 70, Bis(2-ethylbutyl) 1,1′-(((((1-(6-amino-9H-purin-9-yl)propan-2-yl)oxy)methyl)phosphoryl)bis(azanediyl))(R)-bis(cyclopropane-1-carboxylate)] | > 500 nM
17 | CCC(CC)COC(=O)C(C)(C)N[P@@](=O)(CO[C@H](C)Cn1cnc2c(N)ncnc21)NC1(C(=O)OCC(CC)CC)CC1 [Example 72, 2-Ethylbutyl 1-(((S)-((((R)-1-(6-amino-9H-purin-9-yl)propan-2-yl)oxy)methyl)((1-(2-ethylbutoxy)-2-methyl-1-oxopropan-2-yl)amino)phosphoryl)amino)cyclopropane-1-carboxylate] | 16 nM
18 | CCCCCCOC(=O)C(C)(C)NP(=O)(CO[C@H](C)Cn1cnc2c(N)ncnc21)NC(C)(C)C(=O)OCC12CC(C1)C2 (stereo partly drawn) [Example 77, Bicyclo[1.1.1]pentan-1-ylmethyl 2-((((((R)-1-(6-amino-9H-purin-9-yl)propan-2-yl)oxy)methyl)((1-(hexyloxy)-2-methyl-1-oxopropan-2-yl)amino)phosphoryl)amino)-2-methylpropanoate] | > 500 nM
19 | CCCCCCOC(=O)C(C)(C)NP(=O)(CO[C@H](C)Cn1cnc2c(N)ncnc21)NC(C)(C)C(=O)OCC1(F)CC1 (stereo partly drawn) [Example 78, (1-Fluorocyclopropyl)methyl 2-((((((R)-1-(6-amino-9H-purin-9-yl)propan-2-yl)oxy)methyl)((1-(hexyloxy)-2-methyl-1-oxopropan-2-yl)amino)phosphoryl)amino)-2-methylpropanoate] | > 500 nM
20 | CCCCCCOC(=O)C(C)(C)NP(=O)(CO[C@H](C)Cn1cnc2c(N)ncnc21)NC(C)(C)C(=O)OCC(C)(C)OC (stereo partly drawn) [Example 79, Hexyl 2-((((((R)-1-(6-amino-9H-purin-9-yl)propan-2-yl)oxy)methyl)((1-(2-methoxy-2-methylpropoxy)-2-methyl-1-oxopropan-2-yl)amino)phosphoryl)amino)-2-methylpropanoate] | 271 nM
21 | CCCCCCOC(=O)C(C)(C)NP(=O)(CO[C@H](C)Cn1cnc2c(N)ncnc21)NC(C)(C)C(=O)OCC12CCC(CC1)C2 (stereo partly drawn) [Example 80, Bicyclo[2.2.1]heptan-1-ylmethyl 2-((((((R)-1-(6-amino-9H-purin-9-yl)propan-2-yl)oxy)methyl)((1-(hexyloxy)-2-methyl-1-oxopropan-2-yl)amino)phosphoryl)amino)-2-methylpropanoate] | > 500 nM
22 | CCCCCCOC(=O)C(C)(C)NP(=O)(CO[C@H](C)Cn1cnc2c(N)ncnc21)NC(C)(C)C(=O)OC(C)C1CC1 (stereo partly drawn) [Example 81, 1-Cyclopropylethyl 2-((((((R)-1-(6-amino-9H-purin-9-yl)propan-2-yl)oxy)methyl)((1-(hexyloxy)-2-methyl-1-oxopropan-2-yl)amino)phosphoryl)amino)-2-methylpropanoate] | > 500 nM
23 | CCCCCCOC(=O)C(C)(C)NP(=O)(CO[C@H](C)Cn1cnc2c(NCc3oc(=O)oc3C)ncnc21)NC(C)(C)C(=O)OCCCCCC [Example 82, Dihexyl 2,2′-(((((1-(6-(((5-methyl-2-oxo-1,3-dioxol-4-yl)methyl)amino)-9H-purin-9-yl)propan-2-yl)oxy)methyl)phosphoryl)bis(azanediyl))(R)-bis(2-methylpropanoate)] | 345 nM
